From paper PMC11068563, “The MCU and MCUb amino-terminal domains tightly interact: mechanisms for low conductance assembly of the mitochondrial calcium uniporter complex” (iScience, 2024)

T1: MCUb-NTD (MCUb58-159) (Homo sapiens, UniProt Q9NWR8)
T1 construct: N-terminal domain, residues 58-159; pET-28a, E. coli BL21(DE3) codon plus; N-terminal 6xHis tag cut with thrombin
T1 sequence (Q9NWR8 58-159): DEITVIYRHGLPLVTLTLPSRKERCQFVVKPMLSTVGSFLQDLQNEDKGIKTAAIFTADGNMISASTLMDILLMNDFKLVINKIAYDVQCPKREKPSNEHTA

T2: MCU-NTD-fluorescein (MCU residues 72-189 labelled with fluorescein-MTS at Cys97) (human, UniProt Q8NE86-1 72-189, fluorescein (fluorescein-methane thiosulfonate) on Cys97)
T2 construct: mitochondrial calcium uniporter (MCU), Homo sapiens, GenBank NP_612366.1, residues 72-189 (amino-terminal domain); Same chain as m2, with the label; also called fluorescein-MCU-NTD; MCU_(72-189) labeled
T2 sequence (looked up): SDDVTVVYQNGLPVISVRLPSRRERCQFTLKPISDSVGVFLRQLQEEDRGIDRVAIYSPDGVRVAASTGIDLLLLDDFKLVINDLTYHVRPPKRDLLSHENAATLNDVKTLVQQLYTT

B1: MCUb amino-terminal domain (MCUb-NTD), MCUb residues 58-159 (domain or fragment, human, UniProt Q9NWR8 58-159, looked up)
chain: T1 sequence (Q9NWR8 58-159)
notes: MCU dominant negative beta subunit (MCUb), Homo sapiens, GenBank NP_060388.2, residues 58-159 (amino-terminal domain); Cloned into pET-28a by NheI and XhoI; printed as 6xHis-MCUb_(58-159); theoretical monomer mass 12.0098 kDa and 107 expected backbone amides are printed, so a few vector residues probably remain after thrombin cleavage (surmise); also called MCUb_(58-159); 15N-MCUb-NTD; source: E. …

Tests used:
MCUb-NTD (MCUb58-159) = target: T1, MCUb-NTD (MCUb58-159); assay: ANS fluorescence titration, one-site fit; format: binding; conditions: read-out: apparent KD
[1] = target: T2, MCU-NTD-fluorescein (MCU residues …); assay: other fluorescence titration; steady-state fluorescein fluorescence; 0.1 uM MCU-NTD-fluorescein titrated with MCUb-NTD; 20 mM Tris (pH 8.5), 150 mM NaCl, 1 mM DTT, 0.0001% (v/v) NP-40, 22.5°C; one-site model; conditions: both partners purified

Molecule	Kd (MCUb-NTD (MCUb58-159)) [nM]	Kd [1] [nM]
O=S(=O)(O)c1cccc2cccc(Nc3ccccc3)c12 [ANS, 8-Anilinonapthalene 1-sulfonic acid]	1500 ± 600	–
B1	–	125
